Among the data in ChEMBL document CHEMBL4390644, “Synthesis, structure-activity relationship studies and biological characterization of new [1,2,4]triazolo[1,5-a]pyrimidine-based LSD1/KDM1A inhibitors” (Eur J Med Chem, 2019) are IC50, Activity and inhibition values, retold here.

In data set [1] the target is T1, Lysine-specific histone demethylase 1A (Homo sapiens, UniProt O60341). Kind of data set: Inhibition of recombinant LSD1 (unknown origin) expressed in Escherichia coli BL21(DE) using H3K4me2 substrate by amplex red and horseradish peroxidase based fluorescence assay.
The test system of data set [2] is A549. Put plainly: Down regulation of snail levels in human A549 cells up to 16 uM after 96 hrs by Western blot analysis. The format is functional, cell-based.
For data set [3], the target named is T2, MAO-B (Homo sapiens, UniProt P27338).
T2 sequence (P27338 whole entry): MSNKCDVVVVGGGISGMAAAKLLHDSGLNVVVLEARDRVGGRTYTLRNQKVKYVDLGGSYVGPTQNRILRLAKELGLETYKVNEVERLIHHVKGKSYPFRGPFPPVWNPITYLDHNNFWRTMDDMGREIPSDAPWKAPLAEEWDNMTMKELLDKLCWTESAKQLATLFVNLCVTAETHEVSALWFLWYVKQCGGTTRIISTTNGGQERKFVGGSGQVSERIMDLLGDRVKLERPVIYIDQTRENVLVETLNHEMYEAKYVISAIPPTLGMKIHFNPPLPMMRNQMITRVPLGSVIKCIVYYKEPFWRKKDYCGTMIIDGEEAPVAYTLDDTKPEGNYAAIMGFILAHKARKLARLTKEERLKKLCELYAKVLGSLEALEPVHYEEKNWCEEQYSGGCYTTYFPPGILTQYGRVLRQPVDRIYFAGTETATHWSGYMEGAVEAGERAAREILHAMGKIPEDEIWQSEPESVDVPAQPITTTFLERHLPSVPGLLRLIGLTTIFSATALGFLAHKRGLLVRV
Kind of data set: Inhibition of N-terminal FLAG-tagged full length recombinant human MAO-B expressed in Sf9 cells at 10 uM using luciferin derived luminogenic substrate preincubated for 15 mins followed by substrate addition and measured after 60 mins by MAO-Glo assay relative to control. The note with it: probe luciferin derived luminogenic substrate.

The test system of data set [4] is A549. Put plainly: Up regulation of E-cadherin levels in human A549 cells up to 16 uM after 96 hrs by Western blot analysis. The data set is classed as functional, cell-based.
Data set [5] deals with T2, MAO-B. Put plainly: Inhibition of N-terminal FLAG-tagged full length recombinant human MAO-B expressed in Sf9 cells at 1 uM using luciferin derived luminogenic substrate preincubated for 15 mins followed by substrate addition and measured after 60 mins by MAO-Glo assay relative to control. The conditions noted are these: probe luciferin derived luminogenic substrate.
Data set [6] can be described thus: Antioxidant activity assessed as hydrogen peroxide scavenging activity at 10 uM incubated for 30 mins by ferrous ion oxidation-xylenol orange based method. The format is functional.
Data set [7] has as its target T3, MAO-A (Homo sapiens, UniProt P21397).
T3 sequence (P21397 whole entry): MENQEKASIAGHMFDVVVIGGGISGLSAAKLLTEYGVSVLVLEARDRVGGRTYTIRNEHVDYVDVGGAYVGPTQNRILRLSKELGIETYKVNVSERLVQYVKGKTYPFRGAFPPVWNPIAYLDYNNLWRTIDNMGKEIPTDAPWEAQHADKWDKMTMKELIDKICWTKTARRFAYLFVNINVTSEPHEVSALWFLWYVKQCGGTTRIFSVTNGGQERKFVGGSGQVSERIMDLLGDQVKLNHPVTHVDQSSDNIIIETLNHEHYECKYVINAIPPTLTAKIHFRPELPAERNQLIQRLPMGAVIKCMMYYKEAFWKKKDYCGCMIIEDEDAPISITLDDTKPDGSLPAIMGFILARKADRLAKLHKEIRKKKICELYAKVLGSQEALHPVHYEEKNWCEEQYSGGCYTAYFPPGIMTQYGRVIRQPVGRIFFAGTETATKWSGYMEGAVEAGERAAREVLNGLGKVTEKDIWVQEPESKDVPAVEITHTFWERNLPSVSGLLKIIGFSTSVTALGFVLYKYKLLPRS
Put plainly: Inhibition of N-terminal FLAG-tagged full length recombinant human MAO-A expressed in Sf9 cells at 1 uM using luciferin derived luminogenic substrate preincubated for 15 mins followed by substrate addition and measured after 60 mins by MAO-Glo assay relative to control. The conditions noted are these: probe luciferin derived luminogenic substrate.

Data set [8] concerns A549. Put plainly: Down regulation of N-cadherin levels in human A549 cells up to 16 uM after 96 hrs by Western blot analysis. The data set is classed as functional, cell-based.
Data set [9] deals with T3, MAO-A. Put plainly: Inhibition of N-terminal FLAG-tagged full length recombinant human MAO-A expressed in Sf9 cells at 10 uM using luciferin derived luminogenic substrate preincubated for 15 mins followed by substrate addition and measured after 60 mins by MAO-Glo assay relative to control. The note with it: probe luciferin derived luminogenic substrate.
The subject of data set [10] is A549. The conditions noted are these: Homo sapiens, 16 uM.
Description: Antimigratory activity in human A549 cells at 16 uM after 48 hrs by Hoechst 33258 staining based transwell assay
Data set [11] relates to A549. Put plainly: Down regulation of slug levels in human A549 cells up to 16 uM after 96 hrs by Western blot analysis. The data set is classed as functional, cell-based.
For data set [12], the system named is A549. Kind of data set: Up regulation of claudin-1 levels in human A549 cells up to 16 uM after 96 hrs by Western blot analysis. The data set is classed as functional, cell-based.
In data set [13] the test system is A549. Put plainly: Effect on LSD1 expression in human A549 cells up to 16 uM after 96 hrs by Western blot analysis. The format is functional, cell-based.
Data set [14] has as its system A549. Kind of data set: Antiproliferative activity against human A549 cells assessed as reduction in cell viability measured after 72 hrs by MTT based method. The conditions noted are these: A549, 72 h.
In the next data set the test system is Armoracia rusticana. The note with it: 10 uM.
For data set [15], the target named is T1, Lysine-specific histone demethylase 1A. Put plainly: Binding affinity to LSD1 in human A549 cells assessed as increase in stability of cellular LSD1 protein at 10 to 20 uM pre-incubated for 1 hr followed by heating at 46 and 52 degC for 3 mins by Western blot-based CESTA. The data set is classed as cell-based.
The subject of data set [16] is A549. Put plainly: Antiproliferative activity against human A549 cells assessed as reduction in cell viability at <40 uM measured after 72 hrs by MTT based method. The data set is classed as functional.
Data set [17] concerns the target T1, Lysine-specific histone demethylase 1A. Put plainly: Inhibition of LSD1 in human A549 cells assessed as accumulation of H3K4me1 at 8 to 16 uM after 96 hrs by Western blot analysis. The data set is classed as cell-based.
Data set [18] has the same target. Put plainly: Inhibition of LSD1 in human A549 cells assessed as accumulation of H3K4me2 at 8 to 16 uM after 96 hrs by Western blot analysis. The data set is classed as cell-based.
The target is the same in data set [19]. Put plainly: Inhibition of LSD1 in human A549 cells assessed as accumulation of H3K9me1 at 8 to 16 uM after 96 hrs by Western blot analysis. The format is cell-based.
Data set [20] shares this target. Kind of data set: Inhibition of LSD1 in human A549 cells assessed as accumulation of H3K9me2 at 8 to 16 uM after 96 hrs by Western blot analysis. The format is cell-based.
Data set [21] has the same target. Put plainly: Binding affinity to LSD1 in human A549 cells assessed as increase in stability of cellular LSD1 protein at 10 uM pre-incubated for 1 hr followed by heating at 49 degC for 3 mins by Western blot-based CESTA. The format is cell-based.
Data set [22] concerns A549. Kind of data set: Antiproliferative activity against human A549 cells assessed as reduction in cell viability at 1.25 to 100 uM measured after 72 hrs by MTT based method. The format is functional.
The target in data set [23] is T1, Lysine-specific histone demethylase 1A. Put plainly: Binding affinity to LSD1 in human A549 cells assessed as increase in stability of cellular LSD1 protein at 10 uM pre-incubated for 1 hr followed by heating at 52 degC for 3 mins by Western blot-based CESTA. The data set is classed as cell-based.
For data set [24] the target is unchanged. The note with it: 1.6 uM.
Description: Irreversible inhibition of recombinant LSD1 (unknown origin) expressed in Escherichia coli BL21(DE) assessed as recovery of enzyme activity at 1.6 uM using H3K4me2 substrate incubated for 1 hr followed by 80 fold dilution by dilution assay

The source made the active and inactive calls. No cut-off for these calls is given here. Some results are limits rather than exact numbers.

Description for Armoracia rusticana: Inhibition of horseradish peroxidase at 10 uM incubated for 10 mins with presence of H2O2 by absorbance based method relative to control

As to `CN1CCN(c2ccc(Nc3c4c(nc5ncnn35)CCC4)cc2)CC1`, the half-maximal inhibitory concentration (IC50) in [1] is above 50 µM.
Take `Cc1cc(Nc2ccc(N3CCN(C)CC3)cc2)n2nc(SCc3nc4ccccc4[nH]3)nc2n1`: the outcome in the data set with A549 [2], with A549 [4], in the data set on A549 [8], with A549 [11] and in the data set on A549 [12] was Active. Also, the inhibition at 1 h, 10 µM was found to be 34% at MAO-B [3] and 40% on MAO-A [9]. Also, the inhibition at 1 h, 1 µM at MAO-B [5] worked out at 18%; at MAO-A [7] it was 13%. The outcome (in data set [6]; in the data set on A549 [13]) was inactive. Further, the inhibition entry in the data set on A549 [10] is “Active”. Further, the IC50 with A549 [14] was 23.8 µM. For the same molecule, the inhibition result in the data set on Armoracia rusticana was “inactive”.
Regarding `Cc1cc(Nc2ccc(N3CCN(C)CC3)cc2)n2nc(SCc3ccccc3[N+](=O)[O-])nc2n1`, the IC50 in data set [1] is above 50 µM.
For `Cc1cc(Nc2ccccc2)n2nc(SCc3nc4ccccc4[nH]3)nc2n1`, the outcome (in the data set on A549 [2]; in [15]; in the data set on A549 [16]; with A549 [4]; in data set [6]; in the data set on A549 [8]) was inactive. Further, the outcome in the data set on A549 [11], in the data set on A549 [12] and in the data set on A549 [13] was inactive. The inhibition result in data set [17], in [18], in [19] and in data set [20] was “inactive” in each case. For the same molecule, the half-inhibitory concentration (IC50) in [1] was above 50 µM.
On to `Cc1cc(Nc2ccccc2)n2nc(SCc3ccccc3)nc2n1`, for which the IC50 in [1] is above 50 µM.
The same measure, in the same setting: the value for `Cc1cc(Nc2ccc(N3CCN(C)CC3)cc2)n2nc(SCC3CC3)nc2n1` was above 50 µM; that for `Cc1nc2nc(SCc3ccc(Cl)cc3)nn2c(Nc2ccc(N3CCN(C)CC3)cc2)c1C` was above 50 µM; that for `CN1CCN(c2ccc(Nc3cc(-c4ccccc4)nc4ncnn34)cc2)CC1` was above 50 µM.
Same read-out and setting: with `Cc1cc(Nc2ccc(N3CCN(C)CC3)cc2)n2nc(SCCCc3ccccc3)nc2n1` the figure was above 50 µM; with `CCCCCc1c(C)nc2nc(SCc3ccc(Cl)cc3)nn2c1Nc1ccc(N2CCN(C)CC2)cc1`, above 50 µM; with `Cc1cc(N)n2nc(SCc3ccccc3)nc2n1`, above 50 µM.
As to `c1ccc([C@@H]2C[C@H]2NC2CCNCC2)cc1`, the outcome (in the data set on A549 [2]; in [21]; with A549 [4]; in data set [23]; in the data set on A549 [8]; in the data set on A549 [11]) was Active. In the data set with A549 [12], the outcome was Active. In addition, the outcome with A549 [22] and in the data set with A549 [13] was inactive.
For `O=C(O)c1ccc(CN2CCC(CN[C@@H]3C[C@H]3c3ccccc3)CC2)cc1`, in data set [24], the inhibition result was “inactive”.
